Experimental findings from patent publication US9556417B2, “Reprogramming of cells to a new fate” (The Scripps Research Institute, priority 2010, dated 2017) are described below.

Test [1] concerns spontaneously contracting colonies (transdifferentiated cardiomyocytes). The test is described as follows: Calcium imaging and testing of chronotropic agents. It counts as cell-based, mouse. Particulars: 1 μM isoproterenol or 10 μM carbachol; 10 minutes after addition. The procedure:
Cells were loaded with Fluo-4-AM (5 μM, 30 min, 37° C.) (F14201, Invitrogen), and imaged with an Olympus Fluoview 1000 inverted confocal microscope with a 40× oil immersion lens (numerical aperture 1.3). Line scan imaging mode was used to measure spontaneous Ca2^+ transients at 37° C. Image processing and data analysis were performed as previously described (Ouyang, K. et al., J Biol Chem 280, 15898-902 (2005)). For drug testing, all measurements were repeated 10 minutes after the addition of isoproterenol (1 μM; Sigma) or Carbachol (10 μM; Sigma-Aldrich).

Test [2] has as its system R1 ES cells. The test is described as follows: Serum-free monolayer cardiac differentiation of ES cells, beating colonies. It counts as cell-based, mouse. Particulars: early treatment window. The protocol:
Having identified the first serum-free monolayer condition for cardiac differentiation of ES cells, we sought to test its efficacy as a platform to discover regulators of cardiomyogenesis. A collection of approximately 200 small molecules and growth factors reported to be influential in developmental processes were assembled. R1 ES cells were grown and plated for differentiation on Matrigel in 24-well plates using the media and growth factors described above. The screening collection was then added and removed from each well at specific time points in order to account for different developmental time windows. The collection was screened at days 0-2, 2-5, and 5-7.
(§1) Cells are plated at a density of 200,000 cells/well of a 6-well plate in 2.5 ml of ESGM. 6-well plates are coated overnight at 4° C. with 1 ml of Matrigel (BD Bioscience) diluted 50× from stock concentration. 24 hours after plating, or after sufficient colony size was achieved, cells are switched into chemically defined medium (CDM) and treated with 4 uM BIO (Calbiochem) and 20 ng/ml BMP-4 (R&D). CDM contains RPMI 1640, 0.5×N2, 1×B27 (without Vitamin A), 0.5× Glutamax, 0.55 mM beta-mercaptoethanol, 1× non-essential amino acids, 1× nucleosides. At Day 2, medium is changed, and again CDM containing 4 uM BIO with 20 ng/ml BMP-4 is added to the cells. At Day 5, cells are washed once with PBS and medium is changed to CDM containing 100 ng/ml Dkk-1 (R&D). At Day 7, medium is changed, and again CDM containing 100 ng/ml Dkk-1 is added to the cells. At Day 10, cells are trypsinized (0.05% trypsin) (Approximately 5 minutes at 37° C., or until cells begin to detach) and replated onto gelatin coated 6-well plates in CDM with no additional growth factors. By this time, the cells will have formed tight colonies that will be difficult to disrupt (Supplementary FIG. 2b). […] The trypsin is used primarily to detach the cells rather than to dissociate them to a single cell suspension. It is preferable for the colonies to remain intact. The trypsin is briefly quenched with MEF media, cells are centrifuged, and resuspended in CDM for plating. Medium is refreshed as needed to remove dead cells and debris (every 1 to 2 days).

Test [3] deals with R1 ES cells. The test is described as follows: QRT-PCR of markers in differentiating ES cells. The note with it: treated day 0-2, harvested day 4.5. It counts as cell-based, mouse. The procedure: To further analyze the mechanism of action of the cardiogenic effect seen with these molecules, QRT-PCR was carried out on cells treated from day 0-2 and harvested at day 4.5.
QRT-PCR was carried out to observe the induction of cardiomyogenesis at the transcript level. At day 5, when A83-01 treatment begins, the predominant state is that of a developed primitive streak type population that is yet to display robust expression of markers of cardiac precursors such as Nkx2.5, Isl-1, and c-kit.
Total RNA from each sample was prepared from 5×10^4 cells using RNeasy mini kit (Qiagen). Reverse transcription was carried out by using Reverse Transcription System (Promega) and PCR performed using PCR Super Mix (Invitrogen).

Another test deals with R1 mESCs. The test is described as follows: Serum-free monolayer cardiac differentiation of ES cells, αMHC immunostaining at day 10. It counts as cell-based, mouse.
From the text: While cellular differentiation is a fluid process, its study can be simplified by defining stages of differentiation. In order to identify conditions conducive to cardiomyocyte differentiation, we employed a matrix strategy in which cells were differentiated for 10 days encompassing 4 treatment windows (followed by a period of maturation in the final procedure). The stages identified for the current study were mesendoderm, mesoderm, cardiac precursor, early cardiomyocyte, and mature cardiomyocyte. Shown in FIG. 24 is a schematic representing the transition from ES cells to cardiomyocytes, including markers for each cell type defined and the treatments used to stimulate each transition.
We began by identifying a minimal serum-free condition in which approximately 1% of cells would express αMHC (alpha-myosin heavy chain) after 10 days of culture. Combinations of medium components and plate coatings were tested in parallel, with the most permissive and consistent condition being a modified chemically defined N2/B27 medium on Matrigel coated plates (see Methods). Prior to differentiation, ES cells were maintained in a pluripotent state on MEFs and with LIF. At day −1, the cells were trypsinized and replated on Matrigel coated plates in LIF supplemented medium, allowing for better cell survival and more robust initial colony formation. In one day, a sufficient colony size is achieved allowing survival in serum-free medium (FIG. 25).
From a literature search, we identified growth factors, cytokines and small molecules reported to influence cardiac differentiation, such as activators and inhibitors of BMP, TGF-β/Nodal, Hedgehog, Wnt, and Notch pathways and tested each for their ability to induce cardiomyogenesis at each time window. For example, to test Dkk-1 in the second window, cells were in basal medium for days 0-2, treated with Dkk-1 for days 2-5, then cultured in basal medium until day 10 before immunofluorescence scoring. Positive regulators of cardiac specification at each stage were therefore identified by their ability to induce alpha-myosin heavy chain (αMHC) expression at day 10, as assessed by immunostaining.
as §1
Cells were fixed in 4% paraformaldehyde (Sigma) for 15 minutes, and stained in 0.3% Triton (Sigma) containing 5% donkey serum (Jackson ImunoResearch). Antibodies were used at dilutions of MF20 [Developmental Studies Hybridoma Bank (DSHB)] […]

Test [4] relates to mouse embryonic fibroblasts (MEFs). The experiment in a line: Direct cardiac reprogramming of fibroblasts, contracting patch/colony counts. The test is classed as cell-based. The source says:
Having successfully initiated the early cardiogenic program in MEFs, we next sought to induce robust activation of mid-stage cardiac gene expression and to ultimately generate spontaneously contracting patches of cardiac cells, a hallmark of terminal differentiation that is easily observed and quantified. To this end, we treated three-factor transduced MEFs with chemically defined media (CDM) as well as cytokines and small molecules that might enhance cardiogenesis by regulating TGFβ, bone morphogenetic protein (BMP), Hedgehog, Wnt, or Notch pathway activity. Treatments were done individually and in combination, and at different times during the reprogramming process. Despite the general unsuitability of the resulting protocol for iPSC generation, we also explored whether small-molecule inhibition of JAK-STAT (Janus kinase-signal transducer and activator of transcription), PI3K (phosphatidylinositol 3-kinase), or Wnt signalling during the early stages of the protocol might boost the effectiveness of cardiomyogenesis by preventing even a small number of iPSC intermediates from forming. Finally, we experimented with a more gradual transition between different media by lowering FBS concentration step-wise in increments of 1-4% over 3-6 days (immediately prior to switching to CDM). […] During this initial nine-day period, the small-molecule JAK inhibitor JD is continuously kept in the media at a concentration of 0.5 μM. From day nine onwards, the cells are cultured in CDM, with the cardioinductive growth factor BMP4 (Snyder, A. et al., J Cell Biochem 93, 224-32 (2004)) being added at 20 ng/ml for the first five days (FIG. 1b).
All MEFs (129S2/SvPasCrlf) were derived according to WiCell protocols (https://www.wicell.org/index.php?option=com_docman&task=doc_download&gid=687). TTFs were a kind gift of Dr. Hans Schöler. Secondary MEFs were derived as previously described (Wernig, M. et al., Nat Biotechnol 26, 916-24 (2008)). All results were initially obtained and confirmed with the Nebulette-LacZ MEFs; to ensure reproducibility and minimize inter-experimental variation, reported results almost exclusively derive from experiments utilizing secondary dox-inducible MEFs using the optimum induction period. MEFs were initially passaged on gelatin-coated (0.1% for 2 hours at 37° C.) tissue culture dishes in DMEM supplemented with 10% FBS, 2 mM Glutamax and 0.1 mM NEAA (all components from Invitrogen, Carlsbad, Calif.). Prior to viral transduction, cells were seeded onto Matrigel (BD Biosciences, Franklin Lakes, N.J.) or Geltrex (Invitrogen)-coated plates (1:40, overnight at 4° C.) at 3.5×10^4 cells per well of a six well plate (7×10^4 cells for TTFs) in the same media. […]

In the case of `C[N+](C)(C)CCOC(N)=O` [carbachol], in test [1], the “decay period (τ) of calcium transients” value is on record as “opposite effects” and the “frequency of spontaneous calcium transients” value is on record as “opposite effects”.

As for `CC(C)NCC(O)c1ccc(O)c(O)c1` (stereo not shown) [isoproterenol], in test [1], the “decay period (τ) of calcium transients” value is recorded as “shortened” and the “frequency of spontaneous calcium transients” value is recorded as “significantly increased”. Also, the “cardiac differentiation / percentage of beating colonies” value in the test with R1 ES cells [2] was “even more potent cardiac inducing effect than BayK 8644”. For the same molecule, in the test on R1 ES cells [3], the “expression of Brachyury T, Flk-1, GATA-4 and MESP1” value is listed as “increased”.

B1: BMP4: cardioinductive growth factor, member of the TGF-β superfamily (protein, UniProt P12644 293-408, looked up)
Bone morphogenetic protein 4: SPKHHSQRARKKNKNCRRHSLYVDFSDVGWNDWIVAPPGYQAFYCHGDCPFPLADHLNSTNHAIVQTLVNSVNSSIPKACCVPTELSAISMLYLDEYDKVVLKNYQEMVVEGCGCR
For the molecule B1, the optimal concentration in the test with R1 mESCs (first and/or second treatment windows) turned out to be 20 ng/mL. For the same molecule, the “cells staining for αMHC” value in the test with R1 mESCs (treatment in the first window, day 10) is listed as “approximately 20%”. In addition, the “contracting patches per 100,000 MEFs plated (mean)” value in test [4] (n=6, JI1 0.5 μM first nine days, BMP4 20 ng/ml five days) is recorded as 149±13 patches per 100,000 MEFs plated. Also, in test [4] (three-factor transduced MEFs, BMP4 20 ng/ml for first five days in CDM), the “increase in formation of contracting patches” value was approximately 150 fold.
